Among the data in patent US20090304692A1, “TRIAZINE COMPOUNDS AS PI3 KINASE AND MTOR INHIBITORS” (Wyeth, priority 2008, published 2009) are IC50 values, retold here.

The target in experiment [1] is PI3K-α (Homo sapiens, UniProt P42336). As to the kind of experiment: PI3K-alpha fluorescence polarization assay. The settings on record: read-out: IC50 PI3Kα. A general note: Polarisation of emitted light reports the rotation of a fluorescent probe.
For experiment [2], the target named is PI3K-γ (Homo sapiens, UniProt P48736). The experiment can be described thus: PI3K-gamma fluorescence polarization assay.

As usually defined, the IC50 is the midpoint of a concentration-inhibition curve.

Where two headings read alike, the source gives them in different places.

Chain of PI3K-α (P42336 whole entry, species assumed): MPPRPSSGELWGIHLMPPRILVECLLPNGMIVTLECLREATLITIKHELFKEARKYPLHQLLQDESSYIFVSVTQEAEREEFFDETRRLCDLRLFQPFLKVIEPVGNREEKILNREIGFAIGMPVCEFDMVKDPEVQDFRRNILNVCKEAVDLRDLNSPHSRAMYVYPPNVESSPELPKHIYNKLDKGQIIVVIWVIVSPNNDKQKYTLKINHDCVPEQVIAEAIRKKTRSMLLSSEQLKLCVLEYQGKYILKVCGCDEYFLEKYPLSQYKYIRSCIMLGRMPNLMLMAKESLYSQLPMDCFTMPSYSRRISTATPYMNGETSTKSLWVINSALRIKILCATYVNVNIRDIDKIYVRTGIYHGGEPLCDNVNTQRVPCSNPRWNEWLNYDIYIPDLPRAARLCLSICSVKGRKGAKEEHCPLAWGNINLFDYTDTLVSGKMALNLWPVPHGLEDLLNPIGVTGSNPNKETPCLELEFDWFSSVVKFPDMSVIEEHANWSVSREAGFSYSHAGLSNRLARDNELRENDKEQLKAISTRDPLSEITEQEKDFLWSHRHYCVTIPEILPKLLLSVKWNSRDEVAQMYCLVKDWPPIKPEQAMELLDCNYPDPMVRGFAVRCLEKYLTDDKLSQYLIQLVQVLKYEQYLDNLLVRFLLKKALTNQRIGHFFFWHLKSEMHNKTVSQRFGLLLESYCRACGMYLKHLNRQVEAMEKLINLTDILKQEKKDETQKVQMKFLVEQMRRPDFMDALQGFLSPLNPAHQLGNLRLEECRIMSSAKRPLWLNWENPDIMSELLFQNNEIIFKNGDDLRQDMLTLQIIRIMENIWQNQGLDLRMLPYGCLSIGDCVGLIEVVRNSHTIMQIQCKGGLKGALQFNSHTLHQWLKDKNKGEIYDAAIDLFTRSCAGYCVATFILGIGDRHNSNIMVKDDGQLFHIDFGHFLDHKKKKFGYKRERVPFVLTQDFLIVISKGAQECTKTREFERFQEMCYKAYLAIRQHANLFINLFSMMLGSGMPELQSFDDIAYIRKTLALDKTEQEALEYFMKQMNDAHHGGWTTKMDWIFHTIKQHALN
Chain of PI3K-α (P27986 whole entry partner, species assumed): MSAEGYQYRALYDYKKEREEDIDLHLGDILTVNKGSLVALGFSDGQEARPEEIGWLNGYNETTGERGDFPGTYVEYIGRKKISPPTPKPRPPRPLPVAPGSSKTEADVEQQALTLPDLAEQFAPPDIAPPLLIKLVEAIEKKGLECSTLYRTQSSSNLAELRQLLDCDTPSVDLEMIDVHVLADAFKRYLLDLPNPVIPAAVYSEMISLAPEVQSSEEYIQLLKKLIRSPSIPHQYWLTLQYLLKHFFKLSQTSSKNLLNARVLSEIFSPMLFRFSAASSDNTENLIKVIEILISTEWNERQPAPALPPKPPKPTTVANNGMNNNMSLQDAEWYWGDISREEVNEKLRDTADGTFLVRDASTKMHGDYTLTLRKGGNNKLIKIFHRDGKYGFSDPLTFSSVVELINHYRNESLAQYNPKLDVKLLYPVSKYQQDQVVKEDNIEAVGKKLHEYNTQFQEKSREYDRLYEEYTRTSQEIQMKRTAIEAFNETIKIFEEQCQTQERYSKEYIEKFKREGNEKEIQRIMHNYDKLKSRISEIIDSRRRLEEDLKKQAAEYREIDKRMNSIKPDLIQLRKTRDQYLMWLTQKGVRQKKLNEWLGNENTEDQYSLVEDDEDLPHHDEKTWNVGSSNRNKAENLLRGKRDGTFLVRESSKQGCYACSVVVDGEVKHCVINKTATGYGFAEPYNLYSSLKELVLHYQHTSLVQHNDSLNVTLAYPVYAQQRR
Chain of PI3K-γ (P48736 whole entry, species assumed): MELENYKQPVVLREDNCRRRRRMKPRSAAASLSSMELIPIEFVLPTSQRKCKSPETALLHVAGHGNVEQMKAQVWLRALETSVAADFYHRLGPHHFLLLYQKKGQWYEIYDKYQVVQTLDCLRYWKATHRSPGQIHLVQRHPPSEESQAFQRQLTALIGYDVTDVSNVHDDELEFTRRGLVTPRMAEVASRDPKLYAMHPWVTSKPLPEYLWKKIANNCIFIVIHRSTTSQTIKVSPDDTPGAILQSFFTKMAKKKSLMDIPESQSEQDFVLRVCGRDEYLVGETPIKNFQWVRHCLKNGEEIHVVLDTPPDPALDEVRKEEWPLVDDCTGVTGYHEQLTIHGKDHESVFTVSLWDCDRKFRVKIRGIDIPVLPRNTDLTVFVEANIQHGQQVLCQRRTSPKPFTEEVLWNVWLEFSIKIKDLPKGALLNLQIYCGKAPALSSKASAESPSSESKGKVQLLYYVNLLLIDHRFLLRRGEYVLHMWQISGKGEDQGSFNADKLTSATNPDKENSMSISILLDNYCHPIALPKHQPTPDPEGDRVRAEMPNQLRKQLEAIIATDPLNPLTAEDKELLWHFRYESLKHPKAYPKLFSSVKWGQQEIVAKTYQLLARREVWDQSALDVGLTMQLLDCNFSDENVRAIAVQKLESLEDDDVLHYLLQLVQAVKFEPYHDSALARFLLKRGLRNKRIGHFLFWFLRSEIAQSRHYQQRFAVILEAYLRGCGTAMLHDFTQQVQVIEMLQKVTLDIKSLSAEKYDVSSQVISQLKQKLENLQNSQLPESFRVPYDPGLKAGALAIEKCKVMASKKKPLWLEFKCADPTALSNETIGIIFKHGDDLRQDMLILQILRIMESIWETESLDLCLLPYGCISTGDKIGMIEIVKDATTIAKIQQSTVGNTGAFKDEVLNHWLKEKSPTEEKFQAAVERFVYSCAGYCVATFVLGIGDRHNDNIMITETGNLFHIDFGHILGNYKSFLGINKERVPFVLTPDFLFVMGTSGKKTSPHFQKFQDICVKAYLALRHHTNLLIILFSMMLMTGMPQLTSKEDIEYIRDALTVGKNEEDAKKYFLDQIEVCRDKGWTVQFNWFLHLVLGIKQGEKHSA

In the case of `Cc1nc(-c2ccc(NC(=O)Nc3ccc(C(=O)NC4CCN(C)CC4)cc3)cc2)nc(N2CCOCC2)n1` [Example 164, 4-({[4-(4-methyl-6-morpholin-4-yl-1,3,5-triazin-2-yl)phenyl]carbamoyl}amino)-N-(1-methylpiperidin-4-yl)benzamide], the IC50 in experiment [1] was 378 nM; in experiment [2] (read-out: IC50 PI3Kγ), 1380 nM.
On the same counts, the results for `O=C(Nc1ccc(C(=O)N2CCC(N3CCCC3)CC2)cc1)Nc1ccc(-c2nc(N3CCOCC3)nc(N3C[C@@H]4C[C@H]3CO4)n2)cc1` [Example 210, 1-(4-{4-morpholin-4-yl-6-[(1S,4S)-2-oxa-5-azabicyclo[2.2.1]hept-5-yl]-1,3,5-triazin-2-yl}phenyl)-3-{4-[(4-pyrrolidin-1-ylpiperidin-1-yl)carbonyl]phenyl}urea] are 6 nM and 31 nM.
Take `O=C(Nc1ccc(CO)cc1)Nc1ccc(-c2nc(N3C4CCC3COC4)nc(N3C4CCC3COC4)n2)cc1` [Example 287, 1-[4-(4,6-di-3-oxa-8-azabicyclo[3.2.1]oct-8-yl-1,3,5-triazin-2-yl)phenyl]-3-[4-(hydroxymethyl)phenyl]urea]: the IC50 in experiment [2] (read-out: IC50 PI3Kγ) was determined as 3300 nM.
`CNCc1ccc(NC(=O)Nc2ccc(-c3nc(N4C5CCC4COC5)nc(N4C5CCC4COC5)n3)cc2)cc1` [Example 288, 1-[4-(4,6-di-3-oxa-8-azabicyclo[3.2.1]oct-8-yl-1,3,5-triazin-2-yl)phenyl]-3-{4-[(methylamino)methyl]phenyl}urea]: the IC50 in experiment [2] (read-out: IC50 PI3Kγ) turned out to be 2780 nM.
The same measure, in the same setting: the same measure for `CN(C)CCOc1ccc(NC(=O)Nc2ccc(-c3nc(N4C5CCC4COC5)nc(N4C5CCC4COC5)n3)cc2)cc1` [Example 289, 1-{4-[2-(dimethylamino)ethoxy]phenyl}-3-[4-(4,6-di-3-oxa-8-azabicyclo[3.2.1]oct-8-yl-1,3,5-triazin-2-yl)phenyl]urea]: 3880 nM.
`CN1CCN(c2ccc(NC(=O)Nc3ccc(-c4nc(N5C[C@@H]6C[C@H]5CO6)nc(N5C[C@@H]6C[C@H]5CO6)n4)cc3)cc2)CC1` [Example 312, 1-{4-[4,6-di-(1S,4S)-2-oxa-5-azabicyclo[2.2.1]hept-5-yl-1,3,5-triazin-2-yl]phenyl}-3-[4-(4-methylpiperazin-1-yl)phenyl]urea]: the IC50 in experiment [1] was determined as 3440 nM; in experiment [2] (read-out: IC50 PI3Kγ) it was 10000 nM.
Consider `O=C(Nc1ccc(OCCO)cc1)Nc1ccc(-c2nc(N3C4CCC3COC4)nc(N3C4CCC3COC4)n2)cc1` [Example 372, 1-(4-(4,6-di(3-oxa-8-azabicyclo[3.2.1]octan-8-yl)-1,3,5-triazin-2-yl)phenyl)-3-(4-(2-hydroxyethoxy)phenyl)urea], for which, in experiment [2] (read-out: IC50 PI3Kγ), the IC50 is 7240 nM.
The same measure, in the same setting: under `CC(C)Nc1nc(-c2ccc(NC(=O)Nc3ccc(N4CCN(C)CC4)cc3)cc2)nc(N2C3CCC2COC3)n1` [Example 378, 1-(4-(4-(3-oxa-8-azabicyclo[3.2.1]octan-8-yl)-6-(isopropylamino)-1,3,5-triazin-2-yl)phenyl)-3-(4-(4-methylpiperazin-1-yl)phenyl)urea] stands 5380 nM; under `CC(C)N(C)c1nc(-c2ccc(NC(=O)Nc3ccc(N4CCN(C)CC4)cc3)cc2)nc(N2C3CCC2COC3)n1` [Example 389, 1-(4-(4-(3-oxa-8-azabicyclo[3.2.1]octan-8-yl)-6-(isopropyl(methyl)amino)-1,3,5-triazin-2-yl)phenyl)-3-(4-(4-methylpiperazin-1-yl)phenyl)urea], 5660 nM; under `CN1CCN(c2ccc(NC(=O)Nc3ccc(-c4nc(N5CCSCC5)nc(N5C6CCC5COC6)n4)cc3)cc2)CC1` [Example 394, 1-(4-(4-(3-oxa-8-azabicyclo[3.2.1]octan-8-yl)-6-thiomorpholino-1,3,5-triazin-2-yl)phenyl)-3-(4-(4-methylpiperazin-1-yl)phenyl)urea], 3230 nM.
Same read-out and setting: under `CN1CCN(c2ccc(NC(=O)Nc3ccc(-c4nc(C5=CCOCC5)nc(N5C6CCC5COC6)n4)cc3)cc2)CC1` [Example 405, 1-(4-(4-(3-oxa-8-azabicyclo[3.2.1]octan-8-yl)-6-(3,6-dihydro-2H-pyran-4-yl)-1,3,5-triazin-2-yl)phenyl)-3-(4-(4-methylpiperazin-1-yl)phenyl)urea] stands 193 nM.
The same measure, in the same setting: the same measure for `CN1CCN(c2ccc(NC(=O)Nc3ccc(-c4nc(C5CCOCC5)nc(N5C6CCC5COC6)n4)cc3)cc2)CC1` [Example 407, 1-(4-(4-(3-oxa-8-azabicyclo[3.2.1]octan-8-yl)-6-(tetrahydro-2H-pyran-4-yl)-1,3,5-triazin-2-yl)phenyl)-3-(4-(4-methylpiperazin-1-yl)phenyl)urea]: 2260 nM; for `C[C@@H]1COCCN1c1nc(-c2ccc(NC(=O)Nc3ccc(OCCN(C)C)cc3)cc2)nc(N2C3CCC2COC3)n1` [Example 419, 1-(4-(4-(3-oxa-8-azabicyclo[3.2.1]octan-8-yl)-6-((R)-3-methylmorpholino)-1,3,5-triazin-2-yl)phenyl)-3-(4-(2-(dimethylamino)ethoxy)phenyl)urea]: 4270 nM.
For the compound `C[C@@H]1COCCN1c1nc(-c2ccc(NC(=O)Nc3ccc(N4CCN(C)CC4)nc3)cc2)nc(C2CCOCC2)n1` [Example 433, (R)-1-(4-(4-(3-methylmorpholino)-6-(tetrahydro-2H-pyran-4-yl)-1,3,5-triazin-2-yl)phenyl)-3-(6-(4-methylpiperazin-1-yl)pyridin-3-yl)urea], the IC50 amounted to 220 nM in experiment [1] and 1510 nM in experiment [2] (read-out: IC50 PI3Kγ).
With `CCN1CCN(c2ccc(NC(=O)Nc3ccc(-c4nc(C5CCOCC5)nc(N5C6CCC5COC6)n4)cc3)cc2)CC1` [Example 434, 1-(4-(4-(3-oxa-8-azabicyclo[3.2.1]octan-8-yl)-6-(tetrahydro-2H-pyran-4-yl)-1,3,5-triazin-2-yl)phenyl)-3-(4-(4-ethylpiperazin-1-yl)phenyl)urea], the IC50 in experiment [2] (read-out: IC50 PI3Kγ) was 4740 nM.
Regarding `CN(C)C1CCN(c2ccc(NC(=O)Nc3ccc(-c4nc(C5CCOCC5)nc(N5C6CCC5COC6)n4)cc3)cc2)CC1` [Example 437, 1-(4-(4-(3-oxa-8-azabicyclo[3.2.1]octan-8-yl)-6-(tetrahydro-2H-pyran-4-yl)-1,3,5-triazin-2-yl)phenyl)-3-(4-(4-(dimethylamino)piperidin-1-yl)phenyl)urea], the 50% inhibitory concentration (IC50) in experiment [2] (read-out: IC50 PI3Kγ) was determined as 1610 nM.
On the same count and under the same terms, the same measure for `CN1CCN(C(=O)c2ccc(NC(=O)Nc3ccc(-c4nc(C5CCOCC5)nc(N5C6CCC5COC6)n4)cc3)cc2)CC1` [Example 438, 1-(4-(4-(3-oxa-8-azabicyclo[3.2.1]octan-8-yl)-6-(tetrahydro-2H-pyran-4-yl)-1,3,5-triazin-2-yl)phenyl)-3-(4-(4-methylpiperazine-1-carbonyl)phenyl)urea]: 663 nM.
In experiment [2], `CCN1CCN(c2ccc(NC(=O)Nc3ccc(-c4nc(N5C6CCC5COC6)nc(N5CCOC[C@H]5C)n4)cc3)cc2)CC1` [Example 440, 1-(4-(4-(3-oxa-8-azabicyclo[3.2.1]octan-8-yl)-6-((R)-3-methylmorpholino)-1,3,5-triazin-2-yl)phenyl)-3-(4-(4-ethylpiperazin-1-yl)phenyl)urea] gave an IC50 of over 10000 nM.
In the case of `CC(C)N1CCN(c2ccc(NC(=O)Nc3ccc(-c4nc(N5C6CCC5COC6)nc(N5CCOC[C@H]5C)n4)cc3)cc2)CC1` [Example 441, 1-(4-(4-(3-oxa-8-azabicyclo[3.2.1]octan-8-yl)-6-((R)-3-methylmorpholino)-1,3,5-triazin-2-yl)phenyl)-3-(4-(4-isopropylpiperazin-1-yl)phenyl)urea], the IC50 in experiment [2] is over 10000 nM.
`C[C@@H]1COCCN1c1nc(-c2ccc(NC(=O)Nc3ccc(C(=O)N4CCN(C)CC4)cc3)cc2)nc(N2C3CCC2COC3)n1` [Example 444, 1-(4-(4-(3-oxa-8-azabicyclo[3.2.1]octan-8-yl)-6-((R)-3-methylmorpholino)-1,3,5-triazin-2-yl)phenyl)-3-(4-(4-methylpiperazine-1-carbonyl)phenyl)urea]: the IC50 in experiment [2] (read-out: IC50 PI3Kγ) worked out at 1100 nM.
Consider `CC(C)N1CCN(C(=O)c2ccc(NC(=O)Nc3ccc(-c4nc(N5C6CCC5COC6)nc(N5CCOC[C@H]5C)n4)cc3)cc2)CC1` [Example 445, 1-(4-(4-(3-oxa-8-azabicyclo[3.2.1]octan-8-yl)-6-((R)-3-methylmorpholino)-1,3,5-triazin-2-yl)phenyl)-3-(4-(4-isopropylpiperazine-1-carbonyl)phenyl)urea], for which, in experiment [2] (read-out: IC50 PI3Kγ), the IC50 turned out to be 1000 nM.
For the compound `CN(C)[C@H]1CCN(C(=O)c2ccc(NC(=O)Nc3ccc(-c4nc(N5CCOCC5)nc(N5C6CCC5COC6)n4)cc3)cc2)C1` [Example 516, 1-(4-{[(3S)-3-(dimethylamino)pyrrolidin-1-yl]carbonyl}phenyl)-3-{4-[4-morpholin-4-yl-6-(3-oxa-8-azabicyclo[3.2.1]oct-8-yl)-1,3,5-triazin-2-yl]phenyl}urea], the IC50 is 2.1 nM in experiment [1], 2 nM in experiment [1] (listed as 824), 2.15 nM in experiment [1] (listed as 827) and 17 nM in experiment [2] (read-out: IC50 PI3Kγ).
Turning to `Cc1ccc(-c2nc(-c3ccc(NC(=O)Nc4cccc(C(=O)O)c4)cc3)nc(N3CCOCC3)n2)cc1` [Example 577, 3-[({4-[4-(4-methylphenyl)-6-morpholin-4-yl-1,3,5-triazin-2-yl]phenyl}carbamoyl)amino]benzoic acid], the values for the IC50 in experiment [1] and in experiment [2] (read-out: IC50 PI3Kγ) were 63 nM and 104 nM, respectively.
Take `CC(C)N1CCN(C(=O)c2ccc(NC(=O)Nc3ccc(-c4nc(N5C6CCC5COC6)nc(N5CCOC[C@@H]5C)n4)cc3)cc2)CC1` [Example 830, 1-(4-{4-[(3S)-3-methylmorpholin-4-yl]-6-(3-oxa-8-azabicyclo[3.2.1]oct-8-yl)-1,3,5-triazin-2-yl}phenyl)-3-(4-{[4-(propan-2-yl)piperazin-1-yl]carbonyl}phenyl)urea]: the IC50 in experiment [2] (read-out: IC50 PI3Kγ) was found to be 70.5 nM.
Still for that read-out and setting: under `C[C@H]1COCCN1c1nc(-c2ccc(NC(=O)Nc3ccc(C(=O)N4CCN(C)CC4)cc3)cc2)nc(N2C3CCC2COC3)n1` [Example 835, 1-(4-{4-[(3S)-3-methylmorpholin-4-yl]-6-(3-oxa-8-azabicyclo[3.2.1]oct-8-yl)-1,3,5-triazin-2-yl}phenyl)-3-{4-[(4-methylpiperazin-1-yl)carbonyl]phenyl}urea] stands 66 nM.
